Test results taken from patent US20060122153A1, “Antineoplastic ether lipid compounds with modifications at the sn-2 carbon” (priority 2003, published 2006).
Values joined by “and” are separate entries in the source; they are usually repeats but may differ in a detail not shown here. Equal entries are not always repeated. “Also recorded” adds a separate entry of the source. Where two headings read alike, the source gives them in different places.

What was measured:
[1] = tested on: DEVDase activity (Caspase 3) in Jurkat T cells; experiment: DEVDase activity in Jurkat T cells; assay type: cell-based; settings: Jurkat T cells, 6 hours
Description: Suspension cells were seeded at density 3.2×10^5 cells per mL in RPMI-1640 medium (Bio-Whittaker) supplemented with 10% heat inactivated FBS (Bio-Whittaker). Cells were pre-incubated overnight prior to treatment with the ether lipid compounds of the invention. At treatment time cell density was 5×10^5 cells per mL. Cells were incubated with the ether lipid compounds of the invention for various periods of time, usually 6 hours. Cells were collected, washed with 1×DPBS and resuspended in 110 μl of Buffer A (10 mM BEPES-KOH, pH 7.4, 2 mM EDTA, 0.1% CHAPS, 5 mM DTT, 1:100 dilution of protease inhibitors cocktail (Sigma)-DTT and protease inhibitors should be added just before use). After 10 min incubation on ice in order to lyse cells, samples were frozen on dry ice/ethanol and kept at −20° C. until analysis.
At the time of analysis of DEVDase activity frozen pellets were kept on ice until thawed and after vigorous vortexing samples were centrifuged at 14,000 rpm for 6 min.; Supernatant was transferred into another tube and 2 μl, in triplicates, were used for protein measurement using Bradford reagent (Bio-Rad).
Measurement of DEVDase activity was carried out in 100 μl volume, where 10 μg of protein was delivered in 50 μl of Buffer A and 40 μM of substrate Ac-DEVD-AMC was also delivered in 50 μl of Buffer A. All measurements were done in triplicates. Reaction was carried out for 1 hour and generation of fluorescent product of reaction (aminomethylcoumarin) was measured by reading fluorescence at 1em 460 nm (1ex 360 nm). Changes in DEVDase activity were calculated after subtraction of background fluorescence of substrate incubated without proteins, and were expressed as percent of control (DEVDase activity in untreated cells). Average of DEVDase activity, calculated from few independent experiments, was used to calculate percent of L-ether lipid-induced DEVDase activity.

[2] = tested on: WI38; settings: WI38 normal human fibroblast cell line, 3 days
Text: (§1) The following cell lines were selected from the cell bank for screening and GI50 studies: MCF-7: human breast tumor, MCF-7/ADR: MCF-7 adriamycin resistant subline, HT-29: human colon carcinoma, A-549: human non-small cell lung cancer, NIH-3T3: mouse Swiss embryo fibroblast and WI-38: human lung fibroblast, SKMEL-28: human melanoma, Lewis Lung: mouse lung carcinoma, DU-145: prostate carcinoma, B16F10: mouse melanoma, L1210: murine lymphocytic leukemia, P-388: murine leukemia, U-937: human histolytic lymphoma. Except HT-29, WI-38, NIH-3T3 and Lewis Lung which were obtained from the American Type Culture Collection (Rockville, Md.) all the other cell lines were obtained from National Cancer Institute—Frederick Research Facility (Frederick, Md.). All the cell lines were grown in RPMI-1640 medium containing 10% fetal bovine serum (FBS) except WI-38 and DU-145 which were grown in EMEM+10% FBS at 37° C., 5% CO2 and 100% humidity and NIH-3T3, Lewis Lung, B16F10 and L1210 which were grown in DMEM containing 10% FBS (10% HS for L1210). All the adherent cell lines were detached from the culture flasks by addition of 2-3 ml of 0.05% trypsin-EDTA. Thereafter, trypsin was inactivated by addition of 10 mL of 10% serum-containing RPMI-1640 medium. Cells were separated into a single-cell suspension by gentle pipetting action. Depending on the cell type, 3,6000 to 10,000 cells were plated onto 96-well plates a day prior to the drug treatment, in a volume of 100 μl per well.
(§2) The test compounds were made in-house and the compounds were dissolved PBS or saline at a stock concentration of approximately 20 mM, which is 400 times the desired final maximum test concentration. The stock solutions were then diluted with complete medium to twice the desired final concentration. 100 μl aliquots of each dilution was then added to the designated wells. After 3 days of incubation, cell growth was determined.
(§3) The SRB assay was performed as described by Monks, A., Scudiero, D., Skehan, P., Shoemaker, R., Paull, K., Vistica, D., Hose, C., Langley, J., Cronise, P., and Vaigro-Wolff, A. Feasibility of a high-flux anticancer drug screen using a diverse panel of cultured human tumo-r cell lines. J Natl Cancer Inst, 83: 757-766, 1991 with minor modifications. Following drug treatment, cells were fixed with 50 μl of cold 50% (wt/vol) trichloroacetic acid (TCA) for 60 minutes at 4° C. The supernatant was discarded, and the plates were washed six times with deionized water and then air dried. The precipitate was stained with 100 μl SRB solution (0.4% wt/vol in 1% acetic acid) for 10 minutes at room temperature, and free SRB was removed by washing three times with 1% acetic acid, and the plates were then air dried. Bound SRB was solubilized with Tris buffer (10 mM), and the ODs were read using an automated plate reader (Bio-Rad, Model 3550-UV) at 490 nm. Background values were subtracted from the test data, and the data was calculated as a % of control. […] Percentage growth was calculated as described by, Peters, A. C., Ahmad, I., Janoff, A. S., Pushkareva, M. Y., and Mayhew, E. Growth Inhibitory effects of liposome-associated 1-o-octadecyl-2-o-methyl-sn-glycero-3-phosphocholine. Lipids, 32:1045-1054, 1997. The raw optical density data Was imported into an Excel spreadsheet to determine dose responses. […] By varying drug concentration,-dose response curves were generated and the GI-50 values were calculated. The GI50 values for each experiment were calculated using data obtained from three duplicate wells on two separate plates.
(§4) For growth inhibitory evaluation, we used five human tumor cell lines (U937; HT29; A549; MCF7; MCF7/ADR) and two normal fibroblast cell lines (NIH-3T3, murine; WI-38, human).

[3] = tested on: whole human blood; experiment: Hemolysis assay with whole human blood
Description: Venous blood was collected in 10 mL Vacutainer tubes containing EDTA using a 21G needle or larger.
Stock solutions of 20 mM test sample in phosphate buffered saline (PBS) were prepared as follows:
Then 270 uL of whole blood was aliquotted in duplicate mini test tubes using positive displacement pipet. Next, 30 uL of each working stock solution, in duplicate, was added to the whole blood. Next, 30 uL of PBS was added for background control. The samples were capped or sealed with Parafilm and gently mixed. The blood was incubated at 37° C. in gentle rotating water bath for 30 minutes. Final concentration of test sample was 10% of working stock solution.
Total hemolysis samples of 1,% and 10% whole blood samples in deionized water were prepared as follows:
The samples were freeze thawed 3× in liquid nitrogen then wafer bath. The samples were then centrifuged 10 minutes at 1500 RPM. Next, 100 uL of supernatant was transferred to a cuvette and 1 mL deionized water was added. The absorbance was read at 550 nm vs. water blank.
H10 and H50 were calculated by graphing Percent Total Hemolysis vs. Test Sample Concentration. The Percent Total Henolysis=(average o.d of test sample)/(average o.d. of total hemolysis sample)×100

[4] = tested on: platelets in dog whole blood
Description: (§5) Briefly, whole citrated blood is diluted 1:2 with sterile saline and placed in a warm chamber with a mini stir bar. An electronic probe, measuring electrical resistance, is inserted in the sample. The aggregometer is calibrated and the baseline is observed to detect any spontaneous aggregation. The test sample is added and allowed to run for at least 6 minutes. If the sample is an agonist the platelets will start to aggregate and stick to the electronic probe causing resistance across the electrodes to increase. This resistance, in ohms, is measured 6 minutes post addition of sample. The test samples are run at 25, 100, 200, 400 and 800 uM and compared to 100 uM L-ET-18-OCH3.
(§6) Collection of Blood Sample for in vitro Platelet Aggregation Testing: Venous blood is collected in 4.5 mL Vacutainer tubes containing 0.129 M sodium citrate using a 21G needle or larger. Blood is immediately mixed by gentle inversion 15-20 times and kept at room temperature. Dilution ratio is 1 to 9 (3.8% citrate solution:blood). One (2.0 mL) Vacutainer tube containing EDTA is also collected for platelet counts. Complete blood counts (CBC) are measured on the CDC Technologies Hemavet 1500 to ensure that the test subject's platelets are within normal range. Amy vials of hemolytic blood or blood containing any clots should be discarded. Platelet aggregation testing must be completed within 3 hours of blood collection. After this time the ability of platelets to aggregate decreases.
(§7) Dilutions were prepared in PBS or saline at 40× concentration. (25 uL test sample are added to 1000 uL diluted blood (1:40)).

[5] = tested on: U937; experiment: In vitro growth inhibition (GI50), cell growth assay; assay type: cell-based, human; settings: U937 tumor cell line, 3 days
Description: After 3 days of incubation, cell growth was determined.
To determine the Growth Inhibition in the suspension cell lines, cell numbers were directly counted instead of using the SRB assay which determines the total cell protein. One day prior to the drug treatment, 40,000 cells per well were seeded into 24-well plates in a volume of 0.5 mL. Stock solutions were diluted with complete medium to twice the desired final concentrations, and then 0.5 mL aliquots of each dilution were added to the designated wells. After 3 days incubation, cell growth was determined by counting cell number using a coulter counter (Z-M, coulter). Cell counts were-also taken at time 0 and subtracted from the test results to give net growth.

[6] = tested on: HT29; experiment: In vitro growth inhibition (GI50), SRB assay; assay type: cell-based, human; settings: HT29 tumor cell line, 3 days
Text: as §1, §2, §3, §4

[7] = tested on: A549; experiment: In vitro growth inhibition (GI50), SRB assay; assay type: cell-based, human; settings: A549 tumor cell line, 3 days
Text: as §1, §2, §3, §4

[8] = tested on: MCF7/ADR; experiment: In vitro growth inhibition (GI50), SRB assay; assay type: cell-based, human; settings: MCF7/ADR tumor cell line, 3 days
Text: as §1, §2, §3, §4

[9] = tested on: MCF7; experiment: In vitro growth inhibition (GI50), SRB assay; assay type: cell-based, human; settings: MCF7 tumor cell line, 3 days
Text: as §1, §2, §3, §4

[10] = tested on: NIH-3T3; experiment: In vitro growth inhibition (GI50), SRB assay, normal fibroblast; assay type: cell-based, mouse; settings: NIH-3T3 normal murine fibroblast cell line, 3 days
Text: as §1, with “All the adherent cell lines were detached from the culture flasks by addition of 2-3 ml of 0.05% trypsin-EDTA. Thereafter, trypsin was inactivated by addition of 10 mL of 10% serum-containing RPMI-1640 medium. Cells were separated into a single-cell suspension by gentle pipetting action. Depending on the cell type, 3,6000 to 10,000 cells were plated onto 96-well plates a day prior to the drug treatment, in a volume of 100 μl per well.” left out
The test compounds were made in-house and the compounds were dissolved PBS or saline at a stock concentration of approximately 20 mM, which is 400 times the desired final maximum test concentration. […] After 3 days of incubation, cell growth was determined.
The SRB assay was performed as described by Monks, A., Scudiero, D., Skehan, P., Shoemaker, R., Paull, K., Vistica, D., Hose, C., Langley, J., Cronise, P., and Vaigro-Wolff, A. Feasibility of a high-flux anticancer drug screen using a diverse panel of cultured human tumo-r cell lines. […] Bound SRB was solubilized with Tris buffer (10 mM), and the ODs were read using an automated plate reader (Bio-Rad, Model 3550-UV) at 490 nm. Background values were subtracted from the test data, and the data was calculated as a % of control. […] Percentage growth was calculated as described by, Peters, A. C., Ahmad, I., Janoff, A. S., Pushkareva, M. Y., and Mayhew, E. Growth Inhibitory effects of liposome-associated 1-o-octadecyl-2-o-methyl-sn-glycero-3-phosphocholine. […]

[11] = tested on: platelets in dog whole blood; experiment: Platelet aggregation in whole blood (Chronolog whole blood aggregometer)
Description: as §5, §6, §7

Relative Platelet Aggregation (Ohms) ([11]; 25 μM)	Relative Platelet Aggregation (Ohms) ([11]; 100 μM)	Relative Platelet Aggregation (Ohms) ([11]; 400 μM)	Relative Platelet Aggregation (Ohms) ([11]; 800 μM)	Structure (SMILES)	% L-ET18OCH3 (DEVDase, 6 hrs) ([1]; 10 μM ether lipid)	% L-ET18OCH3 (DEVDase, 6 hrs) ([1]; 20 μM ether lipid)	% L-ET18OCH3 (DEVDase, 6 hrs) ([1]; 30 μM ether lipid)	GI50 [2]	H50 [3]	Platelet aggregation [4]	platelet aggregation response (in words) [4]	GI50 [5]	GI50 [6]	GI50 [7]	GI50 [8]	GI50 [9]	GI50 [10]	platelet aggregation response (in words) [11]
				CCCCCCCCCCCCCCCCCCOCC(COP(=O)([O-])OCC[N+](C)(C)C)OC [L-ET18OCH3, 1-O-octadecyl-2-O-methyl-glycerophosphocholine, reference compound]	100 ± 8.8%	100 ± 10.4%	100 ± 9.3%	10 to 12.8 µM	2000, >2000 μM	+++	elicits a platelet-aggregation response	1 to 1.5 µM	5.5 µM and 6 µM	6.5 to 9.1 µM	≥ 25.7 µM	9.7 to 18.6 µM	46.6 µM	
8 Ohms	16 Ohms	10 Ohms	0 Ohms	CCCCCCCCCCCCCCCCCCOC[C@@H](N)COP(=O)([O-])OCC[N+](C)(C)C [9(R)]														clear platelet aggregation response; also recorded: elicited a platelet aggregation response
